Starred links: 1 amine or outer side, 2 acyl side, 3 side chain; linkers in the order of their positions; H or OH if unused. Positions of bridges follow the written chain, without caps; N, C: chain ends. Non-standard residues stand in square brackets, D forms with d. Residues, ends and D or L forms follow the SMILES beside them. *: point of attachment. X1 = CC[C@H](C)[C@@H](N[*:1])[C@@H](O)CC(=O)O[C@H](C(=O)[C@H](C)C(=O)[*:2])C(C)C; NMeY = CN[C@@H](Cc1ccc(O)cc1)C(=O)O; dNMeL = CN[C@H](CC(C)C)C(=O)O; Pyruvoyl = CC(=O)C(=O)*
Tests used:
[1] = system: CAKI-1 human renal tumor xenograft; assay: Aplidine with sorafenib, CAKI-1 xenograft in athymic nude mice (Example 1); assay type: in vivo
Description: Female athymic nude mice (Harlan Sprague Dawley, Madison, Wis.) were utilized for all experiments. Mice were implanted with tumor fragments or a cell suspension when mice were 5 weeks of age. Animals were housed in ventilated rack caging, 5 mice per cage, with food and water ad libitum. The mice were acclimated for 1 week prior to being implanted with tumor fragments or cell suspensions.
Tumor measurements were determined by using Vernier calipers. The formula to calculate volume for a prolate ellipsoid was used to estimate tumor volume (mm^3) from 2-dimensional tumor measurements: Tumor volume (mm^3)=[L×W^2]÷2, where L is the length and it is the longest diameter in mm, and W is the width and it is the shortest diameter in mm of a tumor. Assuming unit density, volume was converted to weight (i.e., 1 mm^3=1 mg).
(§1) Body weights were recorded on treatment days and when tumor sizes were measured. In those days wherein the two drugs were administered the same day, the combination therapy groups were treated by co-administering the two drugs at the same time, with no attempt to sequence the treatments.
(§2) Aplidine was provided in the form of vials of lyophilized aplidine powder which was reconstituted in Cremophor EL/ethanol/water (CEW) 15/15/70 to a concentration of 0.5 mg/ml. Then the aplidine solution in CEW was diluted in 0.9% Saline to the dosing formulation concentrations, being the final proportion of CEW of 0.18/0.18/0.84.
(§3) Tumor size measurements were recorded twice weekly from the treatment initiation until the termination of the study.
(§4) Mean, standard deviation and standard error of the mean were determined for tumor volume for all animal groups at all assessments. Student's t test was performed on tumor volumes at each measurement day, including at the end of the study, to determine whether there were any statistically significant differences between combination treatment groups and single monotherapy treatment groups.
Determine the % of tumor growth inhibition, as 100−% T/C, for each of the drugs administered as monotherapy at the doses used in the combinations. % T/C was obtained by comparing the mean tumor weight in the treatment groups (T) to the mean tumor weight in the control group (C) (T/C×100%). • 2. The two scores were added together to determine the “expected response” if each agent produced the same response as it did when administered as monotherapy. • 3. This “expected response” was subtracted from the % of tumor growth inhibition determined for the combination therapy group: • a. A negative number meant that the effect of combining the two drugs was less than additive. • b. If the resulting number was close to zero, the effect of combining the two drugs was determined as additive. • c.

[2] = system: HepG2 human hepatoma xenograft; assay: Aplidine with sorafenib, HepG2 xenograft in athymic nude mice (Example 6); assay type: in vivo; details: for % Inhibition G2: aplidine 0.06 mg/kg/day; for antitumor activity as single agent (monotherapy): doses tested; for % Inhibition G4: sorafenib 30 mg/kg/day; for % Inhibition G3: sorafenib 60 mg/kg/day
Description: Female athymic nude mice (Harlan Sprague Dawley, Madison, Wis.) were utilized for all experiments. Mice were implanted with a cell suspension when mice were 6-8 weeks of age. Animals were housed in ventilated rack caging with food and water ad libitum. The mice were acclimated for at least 5 days prior to tumor implantation.
The tumor model used in this study was HepG2, which is a human hepatoma cell line obtained from the ATCC (Manassas, Va.). HepG2 cells were grown in MEM medium, 10% FBS, 1.5 g/l sodium bicarbonate, 0.1 mM non-essential amino acids, 1.0 mM sodium pyruvate and 2 mM L-glutamine. Cells from in vitro passage 4-20 were implanted SC into study mice: 5×10^6 cells/mouse in 0.2 ml 50% Matrigel/50% medium without antibiotics or serum, using a 23 G needle and 1 cc syringe. Bacterial cultures were performed on aliquots of the cells prepared for implantation.
Tumor measurements were determined as disclosed in Example 1. When tumor growth was within an average size range of 130±44 mg (mean±SD), mice were randomized into the treatment and control groups based on tumor weight by using LabCat® In Life module V 8.0 SP1 tumor tracking and measurement software.
as §1, with “The treatment of HepG2-tumor-bearing mice was initiated on DPI (Day Post Implantation) 19. Body” for “Body”
as §2, with “The” for “Then the”
as §3, §4
The definition and criteria for the evaluation of potentiation and the degree of additivity for the combination therapy were the same as those disclose in Example 1.

[3] = aplidine 0.040 and/or sorafenib 30 mg/kg/day
[4] = aplidine 0.060 and/or sorafenib 60 mg/kg/day
[5] = G2: aplidine 0.060 mg/kg/day IP

CC[C@H](C)[C@H]1NC(=O)[C@@H](NC(=O)[C@@H](CC(C)C)N(C)C(=O)[C@@H]2CCCN2C(=O)C(C)=O)[C@@H](C)OC(=O)[C@H](Cc2ccc(OC)cc2)N(C)C(=O)[C@@H]2CCCN2C(=O)[C@H](CC(C)C)NC(=O)[C@@H](C)C(=O)[C@H](C(C)C)OC(=O)C[C@@H]1O [aplidine, dehydrodidemnin B] (Pyruvoyl-P[dNMeL]T[X1]LP[NMeY](Me); ester 3-C)
% T/C on day 7 [1, 3]: 115.8% | % T/C on day 9 [1, 3]: 124.7% | % T/C on day 13 [1, 3]: 101.5% | % T/C on day 16 [1, 3]: 108.2% | % T/C on day 21 [1, 3]: 104.9% | % T/C on day 23 [1, 3]: 104.3% | % T/C on day 28 [1, 3]: 104.6% | % T/C on day 31 [1, 3]: 96.8% | % T/C on day 34 [1, 3]: 100.9% | % T/C on day 37 [1, 3]: 108.7% | % T/C on day 41 [1, 3]: 109.5% | % T/C on day 44 [1, 3]: 108.4% | % T/C on day 49 [1, 3]: 104.4% | % T/C on day 7 [1, 4]: 103.9% | % T/C on day 9 [1, 4]: 113.8% | % T/C on day 13 [1, 4]: 101.6% | % T/C on day 16 [1, 4]: 105.7% | % T/C on day 21 [1, 4]: 108.5% | % T/C on day 23 [1, 4]: 109.0% | % T/C on day 28 [1, 4]: 107.5% | % T/C on day 31 [1, 4]: 100.3% | % T/C on day 34 [1, 4]: 101.8% | % T/C on day 37 [1, 4]: 107.7% | % T/C on day 41 [1, 4]: 103.1% | % T/C on day 44 [1, 4]: 99.4% | % T/C on day 49 [1, 4]: 96.5% | antitumor activity as single agent (monotherapy) ([1]; doses and schedules tested): inactive | % T/C on day 19 [2, 5]: 95.9% | % T/C on day 22 [2, 5]: 97.0% | % T/C on day 26 [2, 5]: 66.7% | % T/C on day 30 [2, 5]: 76.9% | % T/C on day 33 [2, 5]: 91.0% | % Inhibition G2 ([2]; day 19): 4.1% | % Inhibition G2 ([2]; day 22): 3.0% | % Inhibition G2 ([2]; day 26): 33.3% | % Inhibition G2 ([2]; day 30): 23.1% | % Inhibition G2 ([2]; day 33): 9.0% | antitumor activity as single agent (monotherapy) [2]: inactive

CNC(=O)c1cc(Oc2ccc(NC(=O)Nc3ccc(Cl)c(C(F)(F)F)c3)cc2)ccn1 [sorafenib]
% T/C on day 7 [1, 3]: 116.6% | % T/C on day 9 [1, 3]: 130.2% | % T/C on day 13 [1, 3]: 105.4% | % T/C on day 21 [1, 3]: 113.0% | % T/C on day 23 [1, 3]: 117.1% | % T/C on day 28 [1, 3]: 90.3% | % T/C on day 31 [1, 3]: 84.0% | % T/C on day 34 [1, 3]: 86.0% | % T/C on day 37 [1, 3]: 92.8% | % T/C on day 41 [1, 3]: 98.0% | % T/C on day 44 [1, 3]: 105.8% | % T/C on day 49 [1, 3]: 102.8% | % T/C on day 7 [1, 4]: 100.6% | % T/C on day 9 [1, 4]: 128.9% | % T/C on day 13 [1, 4]: 104.5% | % T/C on day 21 [1, 4]: 121.2% | % T/C on day 23 [1, 4]: 116.6% | % T/C on day 28 [1, 4]: 110.5% | % T/C on day 31 [1, 4]: 105.2% | % T/C on day 34 [1, 4]: 110.2% | % T/C on day 37 [1, 4]: 119.5% | % T/C on day 41 [1, 4]: 120.5% | % T/C on day 19 ([2]; G3: sorafenib 60 mg/kg/day PO): 88.8% | % T/C on day 22 ([2]; G3: sorafenib 60 mg/kg/day PO): 78.7% | % T/C on day 26 ([2]; G3: sorafenib 60 mg/kg/day PO): 60.1% | % T/C on day 30 ([2]; G3: sorafenib 60 mg/kg/day PO): 61.8% | % T/C on day 33 ([2]; G3: sorafenib 60 mg/kg/day PO): 66.2% | % T/C on day 19 ([2]; G4: sorafenib 30 mg/kg/day PO): 101.4% | % T/C on day 22 ([2]; G4: sorafenib 30 mg/kg/day PO): 123.5% | % T/C on day 26 ([2]; G4: sorafenib 30 mg/kg/day PO): 91.3% | % T/C on day 30 ([2]; G4: sorafenib 30 mg/kg/day PO): 100.9% | antitumor activity as single agent (monotherapy) [2]: inactive | % Inhibition G4 ([2]; day 22): −23.5% | % Inhibition G4 ([2]; day 26): 8.7% | % Inhibition G4 ([2]; day 30): −0.9% | % Inhibition G4 ([2]; day 33): 9.6% | % Inhibition G3 ([2]; day 19): 11.2% | % Inhibition G3 ([2]; day 26): 39.9% | % Inhibition G3 ([2]; day 30): 38.2% | % Inhibition G3 ([2]; day 33): 33.8%

— patent US20110009335A1, “Anticancer Treatments” (priority 2008, published 2011)
